According to publication PMC3763849 (ACS medicinal chemistry letters, 2013):
Entries after “also recorded” stand apart in the source; their conditions may differ.

Columns and labels:
HIV-1LAI = experiment: HIV-1 susceptibility assay in human PBM cells infected with HIV-1LAI; assay type: cell-based; settings: for fold greater potency versus HIV-1 compared to parent nucleoside: phosphoramidate versus parent nucleoside
HBV = experiment: Antiviral activity against HBV in the HepAD38 cell system; assay type: cell-based
PBM cells = experiment: Cellular pharmacology in PBM cells: intracellular nucleoside triphosphate levels; assay type: in vitro ADME, human
[1] = test system: five tested cell lines (PBM, HepG2, Huh7, Vero, CEM); experiment: Cytotoxicity across the five tested cell systems; assay type: cell-based

CCOC(=O)[C@H](C)NP(=O)(OC[C@@H]1OC[C@H](n2cnc3c(OC)ncnc32)O1)Oc1ccccc1 (stereo partly drawn) [Compound 19]
fold greater potency versus HIV-1 compared to parent nucleoside (HIV-1LAI): up to 3,600 fold

Nc1nc(N)c2ncn([C@H]3CO[C@@H](CO)O3)c2n1 [DAPD, Amdoxovir, reference compound]
activity versus HBV (HBV): low micromolar

CCOC(=O)[C@H](C)NP(=O)(OC[C@@H]1OC[C@H](n2cnc3c(N)ncnc32)O1)Oc1ccccc1 (stereo partly drawn) [Compound 17]
fold greater potency versus HIV-1 compared to parent nucleoside (HIV-1LAI): up to 3,600 fold
formation of dioxolane-A triphosphate (PBM cells): found to form the dioxolane-A triphosphate; also recorded: highest levels of dioxolane-A triphosphate

CCOC(=O)CCc1ccccc1OP(=O)(N[C@@H](C)C(=O)OCC)OC[C@@H]1OC[C@H](n2cnc3c(OC)ncnc32)O1 (stereo partly drawn) [Compound 20]
fold greater potency versus HIV-1 compared to parent nucleoside (HIV-1LAI): up to 3,600 fold

OC[C@@H]1OC[C@H](n2cnc3c(NC4CC4)ncnc32)O1 [Compound 8]
cytotoxicity in the five tested cell lines [1]: did not display any cytotoxicity
activity versus HIV (HIV-1LAI): essentially not active
activity versus HBV (HBV): essentially not active

CCOC(=O)CCc1ccccc1OP(=O)(N[C@@H](C)C(=O)OCC)OC[C@@H]1OC[C@H](n2cnc3c(NC4CC4)ncnc32)O1 (stereo partly drawn) [Compound 23]
formation of dioxolane-A triphosphate (PBM cells): found to form the dioxolane-A triphosphate

Nc1ncnc2c1ncn2[C@H]1CO[C@@H](CO)O1 [Compound 6, (−)-β-D-(2R,4R)-6-amino dioxolane adenosine]
formation of dioxolane-A triphosphate (PBM cells): found to form the dioxolane-A triphosphate

CCOC(=O)CCc1ccccc1OP(=O)(N[C@@H](C)C(=O)OCC)OC[C@@H]1OC[C@H](n2cnc3c(N)ncnc32)O1 (stereo partly drawn) [Compound 18]
fold greater potency versus HIV-1 compared to parent nucleoside (HIV-1LAI): up to 3,600 fold
formation of dioxolane-A triphosphate (PBM cells): found to form the dioxolane-A triphosphate; also recorded: highest levels of dioxolane-A triphosphate

CCOC(=O)[C@H](C)NP(=O)(OC[C@@H]1OC[C@H](n2cnc3c(NC4CC4)ncnc32)O1)Oc1ccccc1 (stereo partly drawn) [Compound 22]
cytotoxicity in the five tested cell lines [1]: no observed cytotoxicity
fold greater potency versus HIV-1 compared to parent nucleoside (HIV-1LAI): up to 3,600 fold
formation of dioxolane-A triphosphate (PBM cells): found to form the dioxolane-A triphosphate
